Reference: paper PMC10578352, “Identification of a Protein Arginine Methyltransferase 7 (PRMT7)/Protein Arginine Methyltransferase 9 (PRMT9) Inhibitor” (Journal of Medicinal Chemistry, 2023)
“Also recorded” adds a separate entry of the source.

What was measured:
Format in all cases: biochemical
human recombinant PRMT9 = target: T1, human recombinant PRMT9 (Homo sapiens, UniProt Q6P2P2); experiment: AlphaLISA PRMT9 activity assay (modified BPS kit, biotinylated SF3B2 peptide); details: for IC50 / PRMT9 IC50: PRMT9 0.105 μM, biotinylated SF3B2 (500–519) peptide 100 nM, SAM 25 μM; for PRMT9 inhibition (in words): in-house AlphaLISA assay
T1 construct: human recombinant PRMT9 (2–845; N-terminal FLAG-tag, C-terminal His6-tag); FLAG (N); His6 (C); purchased BPS BioScience 79124
T1 sequence (Q6P2P2 2-845): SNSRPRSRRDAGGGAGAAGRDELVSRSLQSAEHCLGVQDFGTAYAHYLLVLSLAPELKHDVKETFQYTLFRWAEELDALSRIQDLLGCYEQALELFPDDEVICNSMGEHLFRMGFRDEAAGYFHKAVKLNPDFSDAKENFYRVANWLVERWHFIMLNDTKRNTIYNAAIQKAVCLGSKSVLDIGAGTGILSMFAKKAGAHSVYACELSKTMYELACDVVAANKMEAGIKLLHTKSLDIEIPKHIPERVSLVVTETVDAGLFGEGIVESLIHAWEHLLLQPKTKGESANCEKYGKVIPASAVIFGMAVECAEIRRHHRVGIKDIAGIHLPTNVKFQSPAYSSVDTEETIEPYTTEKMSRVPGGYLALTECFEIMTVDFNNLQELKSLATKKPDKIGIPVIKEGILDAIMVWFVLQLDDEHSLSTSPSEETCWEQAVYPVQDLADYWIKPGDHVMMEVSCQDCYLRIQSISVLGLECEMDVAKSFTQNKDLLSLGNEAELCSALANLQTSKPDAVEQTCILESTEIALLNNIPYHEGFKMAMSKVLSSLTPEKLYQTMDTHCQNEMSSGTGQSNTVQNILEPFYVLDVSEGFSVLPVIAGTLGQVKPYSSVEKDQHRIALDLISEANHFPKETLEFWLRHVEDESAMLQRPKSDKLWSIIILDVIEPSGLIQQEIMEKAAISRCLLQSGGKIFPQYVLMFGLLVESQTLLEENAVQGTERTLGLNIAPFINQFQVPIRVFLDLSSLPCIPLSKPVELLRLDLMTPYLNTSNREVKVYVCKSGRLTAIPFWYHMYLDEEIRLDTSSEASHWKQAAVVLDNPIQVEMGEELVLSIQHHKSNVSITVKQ
Procedure: Accordingly, all the enzymatic inhibition data were obtained by performing the assays in these optimized conditions.
The reaction was incubated for 60 min. Afterward, in each well, 5 μL of a 1:100 dilution of Primary antibody 28 (BPS BioScience, #52140Z3) in Detection buffer (BPS BioScience) and 5 μL of anti-Rabbit acceptor beads (PerkinElmer, #AL104C) were added to obtain a final concentration of 20 μg/mL.
For each incubation step, the OptiPlate was sealed with a protective foil to prevent evaporation and contamination. Donor and Acceptor beads were added to the mixture in subdued light.
The 100% activity (positive control) was reached using vehicle (DMSO), while 0% activity (negative control) was obtained without the protein. Data were analyzed by using Excel and Prism software. Values obtained for each compound are mean ± SD determined for three separate experiments.

PRMT1 = target: T2, PRMT1 (Homo sapiens, UniProt Q99873); experiment: HotSpot radioisotope-based filter assay, PRMT1; details: Figure 2; from IC50 values of ref 31
T2 construct: PRMT1 (residues 2–371, C-terminus); with an N-terminal GST-tag; GST (N); purchased Reaction Biology Corporation
Procedure: (§1) Then, ^3H-SAM (final concentration of 1 μM) was delivered into the reaction mixture to initiate the reaction. After incubation for 60 min at 30 °C, the reaction mixture was delivered to filter-paper for detection (as assessed by scintillation). Data were analyzed using Excel and GraphPad Prism 6.0 software (GraphPad Software Inc., San Diego, CA) for IC50 curve fits using sigmoidal dose vs response - variable slope (four parameters) equations.

PRMT3 = target: T3, PRMT3 (Homo sapiens, UniProt O60678); experiment: HotSpot radioisotope-based filter assay, PRMT3; details: Figure 2; from IC50 values of ref 31
T3 construct: PRMT3 (residues 2–531, C-terminus); with an N-terminal His-tag; His (N); purchased Reaction Biology Corporation
Procedure: as §1

PRMT4 = target: T4, PRMT4 (Homo sapiens, UniProt Q86X55); experiment: HotSpot radioisotope-based filter assay, PRMT4; details: Figure 2; from IC50 values of ref 31
T4 construct: PRMT4 (residues 2–608, C-terminus); with an N-terminal GST-tag; GST (N); purchased Reaction Biology Corporation
T4 sequence (Q86X55 2-608): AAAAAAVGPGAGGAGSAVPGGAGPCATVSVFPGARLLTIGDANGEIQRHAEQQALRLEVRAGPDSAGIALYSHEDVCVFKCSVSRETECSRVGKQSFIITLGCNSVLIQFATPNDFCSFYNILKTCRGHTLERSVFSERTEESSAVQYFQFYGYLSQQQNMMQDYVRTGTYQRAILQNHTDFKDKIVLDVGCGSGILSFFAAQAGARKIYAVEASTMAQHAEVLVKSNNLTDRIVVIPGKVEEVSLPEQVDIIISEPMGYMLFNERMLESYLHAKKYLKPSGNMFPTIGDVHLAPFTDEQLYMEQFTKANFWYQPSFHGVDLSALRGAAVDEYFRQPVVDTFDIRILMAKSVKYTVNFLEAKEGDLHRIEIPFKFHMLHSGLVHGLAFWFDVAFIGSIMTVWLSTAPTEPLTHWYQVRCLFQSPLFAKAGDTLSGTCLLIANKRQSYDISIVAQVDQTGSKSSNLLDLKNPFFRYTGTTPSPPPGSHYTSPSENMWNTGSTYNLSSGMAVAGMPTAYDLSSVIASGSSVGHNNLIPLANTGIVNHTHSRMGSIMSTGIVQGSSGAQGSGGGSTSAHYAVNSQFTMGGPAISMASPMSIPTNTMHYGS
Procedure: as §1

PRMT5/MEP50 complex = target: T5, PRMT5/MEP50 complex (Homo sapiens, UniProt O14744); experiment: HotSpot radioisotope-based filter assay, PRMT5; details: Figure 2; from IC50 values of ref 31
T5 construct: residues PRMT5 2–637, C-terminus, and MEP50 2–342, C-terminus; FLAG (N); purchased Reaction Biology Corporation
Procedure: as §1

PRMT6 = target: T6, PRMT6 (Homo sapiens, UniProt Q96LA8); experiment: HotSpot radioisotope-based filter assay, PRMT6; details: Figure 2; from IC50 values of ref 31
T6 construct: PRMT6 (residues 2–375, C-terminus); with an N-terminal GST-tag; GST (N); purchased Reaction Biology Corporation
Procedure: as §1

PRMT8 = target: T7, PRMT8 (Homo sapiens, UniProt Q9NR22); experiment: HotSpot radioisotope-based filter assay, PRMT8; details: Figure 2; from IC50 values of ref 31
T7 construct: (residues 61–394, C-terminus); with C- and N-terminal His-tags; His (N); His (C); purchased Reaction Biology Corporation
Procedure: as §1

T7 sequence (Q9NR22 61-394): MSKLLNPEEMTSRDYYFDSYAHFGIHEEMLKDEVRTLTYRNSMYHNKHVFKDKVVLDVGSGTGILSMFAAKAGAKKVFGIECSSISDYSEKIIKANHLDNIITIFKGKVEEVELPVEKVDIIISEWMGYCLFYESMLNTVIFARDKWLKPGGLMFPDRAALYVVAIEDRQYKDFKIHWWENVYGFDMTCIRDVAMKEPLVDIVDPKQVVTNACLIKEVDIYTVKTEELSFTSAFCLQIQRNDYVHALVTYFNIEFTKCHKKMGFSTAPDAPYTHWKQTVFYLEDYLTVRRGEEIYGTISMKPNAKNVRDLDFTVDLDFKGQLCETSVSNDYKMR
T5 sequence (O14744 2-637): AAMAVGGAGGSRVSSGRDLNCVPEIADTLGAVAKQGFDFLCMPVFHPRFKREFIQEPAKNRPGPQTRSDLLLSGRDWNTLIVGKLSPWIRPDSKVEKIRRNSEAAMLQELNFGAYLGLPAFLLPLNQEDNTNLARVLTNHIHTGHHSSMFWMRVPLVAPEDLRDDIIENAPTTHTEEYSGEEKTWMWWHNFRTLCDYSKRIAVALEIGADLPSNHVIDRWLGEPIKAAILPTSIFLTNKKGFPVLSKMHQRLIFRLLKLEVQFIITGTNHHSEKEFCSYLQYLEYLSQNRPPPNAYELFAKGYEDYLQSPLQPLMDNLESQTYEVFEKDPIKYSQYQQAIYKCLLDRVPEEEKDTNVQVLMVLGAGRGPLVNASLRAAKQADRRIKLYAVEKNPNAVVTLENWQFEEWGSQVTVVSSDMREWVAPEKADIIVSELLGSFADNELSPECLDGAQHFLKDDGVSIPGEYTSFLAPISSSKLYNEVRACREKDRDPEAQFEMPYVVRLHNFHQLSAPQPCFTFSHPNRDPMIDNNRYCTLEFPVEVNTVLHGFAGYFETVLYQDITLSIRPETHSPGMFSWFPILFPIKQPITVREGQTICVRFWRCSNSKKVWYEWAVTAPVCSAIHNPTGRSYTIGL
T5 sequence (Q9BQA1 2-342 partner limits assumed): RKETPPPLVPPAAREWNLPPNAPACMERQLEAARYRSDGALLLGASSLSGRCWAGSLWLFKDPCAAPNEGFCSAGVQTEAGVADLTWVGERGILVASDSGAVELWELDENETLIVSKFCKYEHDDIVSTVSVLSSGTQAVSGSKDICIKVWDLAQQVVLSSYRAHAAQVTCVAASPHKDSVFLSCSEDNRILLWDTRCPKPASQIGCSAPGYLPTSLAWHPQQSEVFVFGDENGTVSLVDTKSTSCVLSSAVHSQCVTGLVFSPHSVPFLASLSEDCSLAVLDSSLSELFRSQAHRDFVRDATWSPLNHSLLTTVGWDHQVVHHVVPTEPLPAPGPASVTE
T2 sequence (Q99873 2-371): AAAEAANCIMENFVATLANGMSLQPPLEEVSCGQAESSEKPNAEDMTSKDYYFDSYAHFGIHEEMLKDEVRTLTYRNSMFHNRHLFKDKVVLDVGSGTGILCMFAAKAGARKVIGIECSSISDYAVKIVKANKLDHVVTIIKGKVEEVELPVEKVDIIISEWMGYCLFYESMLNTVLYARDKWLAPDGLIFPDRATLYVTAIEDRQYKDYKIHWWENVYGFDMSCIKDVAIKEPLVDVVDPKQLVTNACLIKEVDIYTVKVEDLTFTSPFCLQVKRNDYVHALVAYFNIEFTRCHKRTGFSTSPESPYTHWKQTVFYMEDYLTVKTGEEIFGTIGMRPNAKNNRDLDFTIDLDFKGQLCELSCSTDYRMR
T6 sequence (Q96LA8 2-375): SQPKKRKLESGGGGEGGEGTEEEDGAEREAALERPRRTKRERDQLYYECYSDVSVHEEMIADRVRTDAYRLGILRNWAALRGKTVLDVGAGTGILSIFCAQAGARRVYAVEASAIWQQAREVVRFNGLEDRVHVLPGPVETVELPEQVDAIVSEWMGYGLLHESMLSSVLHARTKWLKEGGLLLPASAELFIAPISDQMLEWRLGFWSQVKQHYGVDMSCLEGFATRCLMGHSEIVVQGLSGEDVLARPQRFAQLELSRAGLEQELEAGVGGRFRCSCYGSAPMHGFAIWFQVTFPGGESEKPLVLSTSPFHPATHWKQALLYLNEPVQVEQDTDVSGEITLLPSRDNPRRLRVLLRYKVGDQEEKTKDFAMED
T3 sequence (O60678 2-531): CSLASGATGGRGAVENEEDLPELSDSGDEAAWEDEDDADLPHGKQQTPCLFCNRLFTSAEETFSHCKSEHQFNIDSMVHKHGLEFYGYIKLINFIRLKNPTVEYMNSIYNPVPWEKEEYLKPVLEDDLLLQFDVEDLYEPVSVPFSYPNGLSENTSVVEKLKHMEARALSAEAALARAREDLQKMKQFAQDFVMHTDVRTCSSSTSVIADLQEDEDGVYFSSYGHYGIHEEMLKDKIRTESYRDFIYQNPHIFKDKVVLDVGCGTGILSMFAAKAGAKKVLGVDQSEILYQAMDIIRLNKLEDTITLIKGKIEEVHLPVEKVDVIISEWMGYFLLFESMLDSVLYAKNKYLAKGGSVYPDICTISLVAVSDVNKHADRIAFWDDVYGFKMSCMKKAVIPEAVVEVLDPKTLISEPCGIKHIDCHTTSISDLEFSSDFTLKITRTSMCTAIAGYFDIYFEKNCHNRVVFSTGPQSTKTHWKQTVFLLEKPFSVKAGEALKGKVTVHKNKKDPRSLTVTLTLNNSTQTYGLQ

| SMILES | IC50 (human recombinant PRMT9) [µM] | selectivity index for PRMT7 over PRMT1 (PRMT1) [fold] | selectivity index for PRMT7 over PRMT3 (PRMT3) [fold] | selectivity index for PRMT7 over PRMT4 (PRMT4) [fold] | selectivity index for PRMT7 over PRMT5 (PRMT5/MEP50 complex) [fold] | selectivity index for PRMT7 over PRMT6 (PRMT6) [fold] | selectivity index for PRMT7 over PRMT8 (PRMT8) [fold] | PRMT9 IC50 (human recombinant PRMT9) | PRMT9 inhibition (in words) (human recombinant PRMT9) |
| --- | --- | --- | --- | --- | --- | --- | --- | --- | --- |
| COC(=O)c1cc(O)c2cc(NC(=O)NCCCCCCNC(=N)NC[C@H]3O[C@@H](n4cnc5c(N)ncnc54)[C@H](O)[C@@H]3O)ccc2c1 [1d] | 1.02 |  |  |  |  |  |  |  |  |
| COC(=O)c1cc(O)c2cc(NC(=O)NCCCCCCCNC(=N)NC[C@H]3O[C@@H](n4cnc5c(N)ncnc54)[C@H](O)[C@@H]3O)ccc2c1 [1e] | 1.3 | 4 | 20 | 0.28 | 5 | 56 | 9 |  |  |
| COC(=O)c1cc(O)c2cc(NC(=O)NCCCCNC(=N)NCC[C@H]3O[C@@H](n4cnc5c(N)ncnc54)[C@H](O)[C@@H]3O)ccc2c1 [1f] | 1.2 | 22 | 46 | 0.04 | 0.51 | 100 | 27 |  |  |
| COC(=O)c1cc(O)c2cc(NC(=O)NCCCCNC(=N)NCCC[C@H]3O[C@@H](n4cnc5c(N)ncnc54)[C@H](O)[C@@H]3O)ccc2c1 [1g] | > 10 | 0.38 | 3 | 0.002 | 0.17 | 0.93 | 0.3 |  |  |

Now from value to compound, other results behind:

| IC50 (human recombinant PRMT9) [µM] | selectivity index for PRMT7 over PRMT1 (PRMT1) [fold] | selectivity index for PRMT7 over PRMT3 (PRMT3) [fold] | selectivity index for PRMT7 over PRMT4 (PRMT4) [fold] | selectivity index for PRMT7 over PRMT5 (PRMT5/MEP50 complex) [fold] | selectivity index for PRMT7 over PRMT6 (PRMT6) [fold] | selectivity index for PRMT7 over PRMT8 (PRMT8) [fold] | PRMT9 IC50 (human recombinant PRMT9) | SMILES | PRMT9 inhibition (in words) (human recombinant PRMT9) |
| --- | --- | --- | --- | --- | --- | --- | --- | --- | --- |
|  |  |  |  |  |  |  | no inhibition | CCOC(=O)c1cc2cc(NC(=O)CNC(=O)Nc3ccc([N+](=O)[O-])cc3)ccc2[nH]1 [EML105] | no PRMT9 inhibition; also recorded: no activity |
|  |  |  |  |  |  |  | no inhibition | COC(=O)c1cc(O)c2cc(NC(=O)Nc3ccc4cc(C(=O)OC)cc(O)c4c3)ccc2c1 [EML107] | no PRMT9 inhibition; also recorded: no activity |
|  |  |  |  |  |  |  | no inhibition | O=C(Nc1ccc2cc(C(=O)O)cc(O)c2c1)Nc1ccc2cc(C(=O)O)cc(O)c2c1 [EML108] | no PRMT9 inhibition; also recorded: no activity |
|  |  |  |  |  |  |  | no inhibition | O=C(Nc1ccc2[nH]cc(C(=O)O)c2c1)Nc1ccc2[nH]cc(C(=O)O)c2c1 [EML145] | no PRMT9 inhibition; also recorded: no activity |
|  |  |  |  |  |  |  | no inhibition | COC(=O)c1c[nH]c2ccc(NC(=O)CC(=O)Nc3ccc4[nH]cc(C(=O)OC)c4c3)cc12 [EML147] | no PRMT9 inhibition; also recorded: no activity |
|  |  |  |  |  |  |  | no inhibition | O=C(CC(=O)Nc1ccc2[nH]cc(C(=O)O)c2c1)Nc1ccc2[nH]cc(C(=O)O)c2c1 [EML148] | no PRMT9 inhibition; also recorded: no activity |
